According to article PMC5490407, “Chiral Derivatives of Xanthones: Investigation of the Effect of Enantioselectivity on Inhibition of Cyclooxygenases (COX-1 and COX-2) and Binding Interaction with Human Serum Albumin” (Pharmaceuticals, 2017):

How the values were obtained:
HSA = biological target: T1, HSA (Homo sapiens, UniProt P02768); assay: Interaction with human serum albumin by fluorescence quenching; assay type: binding; conditions: for Ymax, maximum percentage of HSA fluorescence quenching / Kd: HSA 2 µM, pH 7.4, 25 °C; for Ymax, maximum percentage of HSA fluorescence quenching / Kd / ∆G Binding: mean ± standard deviation of triplicate runs; for Kd: read-out: Kd, dissociation constant of CDX-HSA; for ∆G Binding: HSA binding
T1 construct: purchased Sigma-Aldrich
Protocol: Evaluation of the binding of CDXs to HSA was based on the quenching of HSA intrinsic fluorescence. Phosphate buffer consisting of 7.5 mM Na2HPO4, 1.5 mM KH2PO4 and 140 mM NaCl (pH 7.4) was used in the preparation of CDX solutions. Solutions of HSA fraction V (Sigma-Aldrich, St. Louis, MO, USA) were prepared in water. Briefly, 500 µL of HSA (fixed final concentration 2 µM), increasing volumes of drug solution (n = 13, 0–200 µM) and phosphate buffer solution (pH 7.4) were mixed to a final volume of 1500 µL. The corresponding blank solutions were identically prepared and analysed in the absence of the drug. Fluorescence emission spectra were recorded in the range of 300–450 nm upon excitation at 295 nm. Excitation spectra were also recorded between 220 and 310 nm with emission set at 330 nm. For individual measurements, excitation and emission wavelength were set at 295 nm and 330 nm, respectively. For each measurement, fluorescence emission was automatically acquired during 180 s (5 nm bandwidth). For all compounds, UV-vis absorption spectra (200–500 nm) were recorded. These measurements were used to correct the fluorescence intensity values due to inner filter effects at the excitation wavelength. All experiments were performed at room temperature (25 ± 1 °C). Fluorescence and absorbance measurement were performed in a LS-50B spectrometer (Perkin Elmer, Waltham, MA, USA) and a V-660 spectrophotometer (Jasco, Easton, MD, USA) respectively.
HSA-CDX binding parameters were calculated using the Origin 8.5.1 software (8.5.1, Northampton, MA, USA). The fitting of the experimental values was made according to the Langmuir binding equation (Equation (1)) to calculate HSA binding parameters: (1) [HSA−CDX]=[HSA]/1+ Kd/[CDX] where [HSA], [CDX] and [HSA-CDX] are given in μM and Kd corresponds to the dissociation constant of HSA-CDX complexes.
In terms of fluorescence quenching mediated by the compound, the previous Langmuir isotherm can be rewritten as follows (Equation (2)):(2) %quenching=ymax^n/1+ Kd/[CDX] where ymax corresponds to the highest percentage of quenching induced by a given compound and n accounts for the number of biding sites of the enzyme to the CDX. Finally, free Gibbs energy (ΔG) was also determined for all the interactions.

COX-1 = biological target: T2, COX-1 (Ovis aries, UniProt P05979); assay: COX Inhibitor Screening Assay Kit, COX-1 inhibition; assay type: biochemical, ovine; conditions: CDXs 20 µmol/L; mean ± standard deviation, triplicate in two independent days
T2 construct: purchased Cayman Chemical
T2 sequence (P05979 25-600): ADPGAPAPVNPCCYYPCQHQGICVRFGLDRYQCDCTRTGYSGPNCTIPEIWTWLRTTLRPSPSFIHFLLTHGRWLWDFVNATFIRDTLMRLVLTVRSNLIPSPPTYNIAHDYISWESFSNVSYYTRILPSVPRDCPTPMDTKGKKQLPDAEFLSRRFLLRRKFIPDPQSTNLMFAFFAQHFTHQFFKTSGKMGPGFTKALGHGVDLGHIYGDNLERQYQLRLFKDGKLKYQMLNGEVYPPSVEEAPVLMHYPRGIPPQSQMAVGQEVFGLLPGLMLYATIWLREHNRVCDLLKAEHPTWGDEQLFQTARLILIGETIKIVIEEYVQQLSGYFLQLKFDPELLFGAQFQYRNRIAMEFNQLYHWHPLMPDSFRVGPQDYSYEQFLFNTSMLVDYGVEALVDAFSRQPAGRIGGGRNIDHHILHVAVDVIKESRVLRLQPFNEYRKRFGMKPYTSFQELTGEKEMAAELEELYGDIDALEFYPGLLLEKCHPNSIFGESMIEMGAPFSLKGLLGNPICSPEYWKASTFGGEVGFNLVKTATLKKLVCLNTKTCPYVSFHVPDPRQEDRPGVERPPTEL
Protocol: (§1) The effect of CDXs previously obtained in our group as inhibitors of membrane located enzymes that might be involved in inflammatory processes, namely COX-1 and COX-2, was evaluated. Three enantiomeric pairs of CDXs were chosen to study the inhibitory effect of both enantiomers of each pair face to biological targets in order to evaluate potency and enantioselectivity. The effect on COXs activity was studied by spectrofluorimetry using a commercial kit measuring the peroxidation activity of COXs. The kit includes isoenzyme-specific inhibitors for distinguishing COX-1 from COX-2 activities.
(§2) The evaluation of the inhibition of COX-1 and COX-2 by CDXs was conducted using the commercially available COX (ovine/human) Inhibitor Screening Assay Kit (Cayman Chemical, Michigan, MI, USA). Briefly, the assay implies an enzymatic immunoassay based on the competition between prostaglandins (PGs) and a PG-acetylcholinesterase (AChE) conjugate (PG tracer), which is then evaluated by the addition of Ellman’s reagent. All the solutions required for the experiment were prepared according to the manufacturer’s instructions. Each compound was analysed in two independent days, in triplicate. CDX working solutions were prepared in DMSO to a final concentration of 20 µM. […] Absorbance measurements at 412 nm were performed in a Synergy HT microplate reader (Bio-Tek Instruments, Winooski, VT, USA) operated with Gen5 software (Bio-Tek Instruments).

COX-2 = biological target: T3, COX-2 (Homo sapiens, UniProt P35354); assay: COX Inhibitor Screening Assay Kit, COX-2 inhibition; assay type: biochemical; conditions: for percentage of enzyme inhibition, COX-2: CDXs 20 µmol/L, mean ± standard deviation, triplicate in two independent days
T3 construct: purchased Cayman Chemical
T3 sequence (P35354 18-604): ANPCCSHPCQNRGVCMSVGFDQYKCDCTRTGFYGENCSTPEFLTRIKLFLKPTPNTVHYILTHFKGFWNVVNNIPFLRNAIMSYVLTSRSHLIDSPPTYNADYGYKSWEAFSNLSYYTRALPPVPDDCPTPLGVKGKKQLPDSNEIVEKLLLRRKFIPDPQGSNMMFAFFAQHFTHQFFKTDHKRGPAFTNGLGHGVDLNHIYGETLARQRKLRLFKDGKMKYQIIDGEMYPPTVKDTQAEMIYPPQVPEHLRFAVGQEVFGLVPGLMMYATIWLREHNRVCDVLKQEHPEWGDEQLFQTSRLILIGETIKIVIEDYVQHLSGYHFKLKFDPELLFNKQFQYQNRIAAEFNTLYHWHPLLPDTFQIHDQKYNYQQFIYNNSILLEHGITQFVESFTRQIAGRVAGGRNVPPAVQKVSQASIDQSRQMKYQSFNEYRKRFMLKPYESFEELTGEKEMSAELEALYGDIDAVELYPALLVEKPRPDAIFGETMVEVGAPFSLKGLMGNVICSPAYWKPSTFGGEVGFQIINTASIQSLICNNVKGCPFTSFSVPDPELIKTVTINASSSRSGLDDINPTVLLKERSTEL
Protocol: as §1, §2

T1 sequence (P02768 25-609): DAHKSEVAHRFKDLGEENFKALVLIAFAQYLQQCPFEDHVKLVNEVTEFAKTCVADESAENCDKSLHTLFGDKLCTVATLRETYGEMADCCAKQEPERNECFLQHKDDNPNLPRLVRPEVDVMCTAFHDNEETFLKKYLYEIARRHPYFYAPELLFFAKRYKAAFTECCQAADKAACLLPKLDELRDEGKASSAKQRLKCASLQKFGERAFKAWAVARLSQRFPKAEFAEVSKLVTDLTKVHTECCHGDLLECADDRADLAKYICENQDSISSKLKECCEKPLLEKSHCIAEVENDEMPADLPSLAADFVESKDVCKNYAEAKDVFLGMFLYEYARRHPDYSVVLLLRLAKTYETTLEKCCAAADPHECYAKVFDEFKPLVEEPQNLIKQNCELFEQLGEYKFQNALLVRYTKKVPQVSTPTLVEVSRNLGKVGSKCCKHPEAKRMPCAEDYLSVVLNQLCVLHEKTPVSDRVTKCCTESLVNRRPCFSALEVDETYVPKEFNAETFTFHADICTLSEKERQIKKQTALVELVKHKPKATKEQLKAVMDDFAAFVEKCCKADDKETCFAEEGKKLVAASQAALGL

| Compound | difference in HSA binding affinity between (S)- and (R)-enantiomers (HSA; (S)-enantiomer higher affinity than (R)-enantiomer) | percentage of enzyme inhibition, COX-1 (COX-1) | percentage of enzyme inhibition, COX-2 (COX-2) | Ymax, maximum percentage of HSA fluorescence quenching (HSA) | Kd (HSA) | enzyme-type selectivity COX-2 vs COX-1 (COX-2; paired t-test, p < 0.05) | ∆G Binding (HSA) |
| --- | --- | --- | --- | --- | --- | --- | --- |
| COc1ccc2c(=O)c3cc(C(=O)NC(CO)c4ccccc4)ccc3oc2c1 (stereo not shown) [CDX1] | ca. 2.6 fold | – | – | – | – | – | – |
| COc1ccc2c(=O)c3cc(C(=O)N[C@H](CO)C(C)C)ccc3oc2c1 [(S)-(−)-CDX2] | – | 82.9 ± 5.2% | 85.7 ± 4.5% | 107.4 ± 5.4% | 24.7 ± 1.1 µM | – | – |
| COc1ccc2c(=O)c3cc(C(=O)N[C@@H](CO)C(C)C)ccc3oc2c1 [(R)-(+)-CDX2] | – | 66.8 ± 1.6% | 73.2 ± 0.4% | 108.2 ± 0.2% | 29.2 ± 0.9 µM | more active at inhibiting COX-2 than COX-1 | -8.37 ± 0.42 kJ/mol |
| COc1ccc2c(=O)c3cc(C(=O)N[C@@H](CO)c4ccccc4)ccc3oc2c1 [(R)-(+)-CDX1] | – | 79.6 ± 5.0% | 84.7 ± 5.7% | 109.6 ± 1.6% | 61.8 ± 6.5 µM | – | – |
| COc1ccc2c(=O)c3cc(C(=O)N[C@H](CO)c4ccccc4)ccc3oc2c1 [(S)-(−)-CDX1] | – | 87.6 ± 2.1% | 80.1 ± 12.8% | 105.3 ± 0.4% | 23.6 ± 0.8 µM | – | – |
| COc1ccc2c(=O)c3cc(C(=O)N[C@H](C)CO)ccc3oc2c1 [(R)-(−)-CDX3] | – | 75.2 ± 9.0% | 75.1 ± 7.2% | 113.2 ± 1.4% | 26.4 ± 1.2 µM | – | – |
| COc1ccc2c(=O)c3cc(C(=O)N[C@@H](C)CO)ccc3oc2c1 [(S)-(+)-CDX3] | – | 91.7 ± 10.7% | 93.4 ± 11.4% | 116.2 ± 0.6% | 31.4 ± 2 µM | – | -8.37 ± 0.84 kJ/mol |
